Test results taken from the kinase profiling compilation of Christmann-Franck et al. (2016).

Legend:
Assay in all cases: KINOMEscan competition binding
Conditions in all cases: compound 10.0 µM
[1] = biological target: IGF1R (human) (UniProt P08069)
[2] = biological target: EPHA2 (human) (UniProt P29317)
[3] = biological target: ITK (human) (UniProt Q08881)
[4] = biological target: CDC42BPG (human) (UniProt Q6DT37)
[5] = biological target: STK33 (human) (UniProt Q9BYT3)
[6] = biological target: KDR (human) (UniProt P35968)
[7] = biological target: PIM3 (human) (UniProt Q86V86)
[8] = biological target: SGK3 (human) (UniProt Q96BR1)
Sequence of SGK3 (human) (Q96BR1 whole entry, looked up): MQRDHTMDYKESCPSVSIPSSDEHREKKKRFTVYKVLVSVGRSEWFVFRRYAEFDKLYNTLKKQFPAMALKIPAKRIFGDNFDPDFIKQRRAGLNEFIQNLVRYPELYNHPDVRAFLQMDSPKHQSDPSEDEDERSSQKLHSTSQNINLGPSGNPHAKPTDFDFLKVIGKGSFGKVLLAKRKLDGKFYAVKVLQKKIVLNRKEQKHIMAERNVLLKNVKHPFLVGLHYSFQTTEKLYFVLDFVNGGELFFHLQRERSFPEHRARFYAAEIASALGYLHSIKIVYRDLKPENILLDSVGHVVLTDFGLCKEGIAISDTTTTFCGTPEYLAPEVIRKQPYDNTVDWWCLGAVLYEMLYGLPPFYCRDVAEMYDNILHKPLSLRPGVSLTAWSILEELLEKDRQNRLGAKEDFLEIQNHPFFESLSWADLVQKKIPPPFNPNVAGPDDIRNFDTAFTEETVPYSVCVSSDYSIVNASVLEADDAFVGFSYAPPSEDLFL

[9] = biological target: CDK13 (human) (UniProt Q14004)
[10] = biological target: FES (human) (UniProt P07332)
[11] = biological target: ABL2 (human) (UniProt P42684)
[12] = biological target: LIMK1 (human) (UniProt P53667)
[13] = biological target: EPHA4 (human) (UniProt P54764)
[14] = biological target: CDKL1 (human) (UniProt Q00532)
[15] = biological target: CDK8 (human) (UniProt P49336)
[16] = biological target: EPHA1 (human) (UniProt P21709)
[17] = biological target: PIM2 (human) (UniProt Q9P1W9)
[18] = biological target: PAK1 (human) (UniProt Q13153)
[19] = biological target: PRKACB (human) (UniProt P22694)
[20] = biological target: STK17B (human) (UniProt O94768)
[21] = biological target: CDK9 (human) (UniProt P50750)
[22] = biological target: STK3 (human) (UniProt Q13188)
[23] = tested on: FGFR3 (human), P22607 [G697C]
[24] = biological target: MAP2K1 (human) (UniProt Q02750)
[25] = tested on: CPK1 (P.falciparum)
[26] = biological target: BMPR2 (human) (UniProt Q13873)
[27] = biological target: NTRK2 (human) (UniProt Q16620)
[28] = biological target: SRPK2 (human) (UniProt P78362)
[29] = biological target: CDK18 (human) (UniProt Q07002)
[30] = biological target: ADCK4 (human) (UniProt Q96D53)
[31] = biological target: TEC (human) (UniProt P42680)
Sequence of TEC (human) (P42680 whole entry, looked up): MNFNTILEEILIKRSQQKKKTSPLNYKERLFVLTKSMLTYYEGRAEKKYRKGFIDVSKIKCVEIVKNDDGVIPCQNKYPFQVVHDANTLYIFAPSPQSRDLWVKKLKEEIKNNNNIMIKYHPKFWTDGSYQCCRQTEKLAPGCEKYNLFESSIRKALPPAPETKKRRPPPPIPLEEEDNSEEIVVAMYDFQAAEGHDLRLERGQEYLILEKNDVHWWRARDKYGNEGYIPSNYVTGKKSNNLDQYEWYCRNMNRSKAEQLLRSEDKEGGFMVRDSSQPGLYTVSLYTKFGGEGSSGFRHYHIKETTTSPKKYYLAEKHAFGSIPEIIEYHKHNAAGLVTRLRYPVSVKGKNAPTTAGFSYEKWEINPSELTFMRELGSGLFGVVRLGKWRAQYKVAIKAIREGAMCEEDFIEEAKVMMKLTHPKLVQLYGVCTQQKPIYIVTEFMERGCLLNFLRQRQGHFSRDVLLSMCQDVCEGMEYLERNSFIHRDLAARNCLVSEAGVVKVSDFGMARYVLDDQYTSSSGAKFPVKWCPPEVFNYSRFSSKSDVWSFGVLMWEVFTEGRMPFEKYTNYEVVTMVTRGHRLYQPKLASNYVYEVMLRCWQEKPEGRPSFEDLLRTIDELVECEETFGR

[32] = biological target: IKBKB (human) (UniProt O14920)
Sequence of IKBKB (human) (O14920 whole entry, looked up): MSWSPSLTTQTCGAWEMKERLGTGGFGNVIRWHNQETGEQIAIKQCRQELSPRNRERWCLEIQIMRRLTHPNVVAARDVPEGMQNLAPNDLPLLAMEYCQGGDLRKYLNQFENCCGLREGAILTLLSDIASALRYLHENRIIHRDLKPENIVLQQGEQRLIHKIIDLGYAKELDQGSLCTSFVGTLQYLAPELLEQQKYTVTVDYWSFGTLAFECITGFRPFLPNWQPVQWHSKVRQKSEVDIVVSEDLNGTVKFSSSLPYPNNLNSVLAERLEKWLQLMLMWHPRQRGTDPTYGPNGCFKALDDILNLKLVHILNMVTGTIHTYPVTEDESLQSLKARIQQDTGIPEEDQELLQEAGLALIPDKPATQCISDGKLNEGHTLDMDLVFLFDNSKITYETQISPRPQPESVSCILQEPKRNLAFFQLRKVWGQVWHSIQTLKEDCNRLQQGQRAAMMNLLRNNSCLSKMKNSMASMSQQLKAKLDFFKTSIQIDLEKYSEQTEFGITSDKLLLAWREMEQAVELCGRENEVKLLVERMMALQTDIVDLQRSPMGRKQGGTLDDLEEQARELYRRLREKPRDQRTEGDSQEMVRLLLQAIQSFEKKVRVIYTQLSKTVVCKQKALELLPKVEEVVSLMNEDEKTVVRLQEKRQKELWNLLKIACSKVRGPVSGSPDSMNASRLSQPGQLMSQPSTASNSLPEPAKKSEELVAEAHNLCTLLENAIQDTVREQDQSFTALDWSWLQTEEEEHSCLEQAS

[33] = biological target: CRK2 (P.falciparum) (UniProt P61075)
[34] = biological target: CDK17 (human) (UniProt Q00537)
Sequence of CDK17 (human) (Q00537 whole entry, looked up): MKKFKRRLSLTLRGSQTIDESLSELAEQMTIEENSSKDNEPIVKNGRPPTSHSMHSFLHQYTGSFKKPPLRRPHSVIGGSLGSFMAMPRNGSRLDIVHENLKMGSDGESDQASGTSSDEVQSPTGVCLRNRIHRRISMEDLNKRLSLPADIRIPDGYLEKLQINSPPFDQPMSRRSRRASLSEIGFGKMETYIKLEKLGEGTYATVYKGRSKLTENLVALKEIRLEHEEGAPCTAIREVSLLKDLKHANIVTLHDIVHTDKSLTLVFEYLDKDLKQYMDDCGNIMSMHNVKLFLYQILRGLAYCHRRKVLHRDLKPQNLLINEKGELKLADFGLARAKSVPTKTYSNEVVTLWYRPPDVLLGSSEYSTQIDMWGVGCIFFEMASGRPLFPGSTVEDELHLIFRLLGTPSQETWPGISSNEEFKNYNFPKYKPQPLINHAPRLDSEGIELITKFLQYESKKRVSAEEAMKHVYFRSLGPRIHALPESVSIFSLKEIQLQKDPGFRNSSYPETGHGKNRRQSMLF

[35] = biological target: EPHB4 (human) (UniProt P54760)
[36] = biological target: PLK4 (human) (UniProt O00444)
Sequence of PLK4 (human) (O00444 whole entry, looked up): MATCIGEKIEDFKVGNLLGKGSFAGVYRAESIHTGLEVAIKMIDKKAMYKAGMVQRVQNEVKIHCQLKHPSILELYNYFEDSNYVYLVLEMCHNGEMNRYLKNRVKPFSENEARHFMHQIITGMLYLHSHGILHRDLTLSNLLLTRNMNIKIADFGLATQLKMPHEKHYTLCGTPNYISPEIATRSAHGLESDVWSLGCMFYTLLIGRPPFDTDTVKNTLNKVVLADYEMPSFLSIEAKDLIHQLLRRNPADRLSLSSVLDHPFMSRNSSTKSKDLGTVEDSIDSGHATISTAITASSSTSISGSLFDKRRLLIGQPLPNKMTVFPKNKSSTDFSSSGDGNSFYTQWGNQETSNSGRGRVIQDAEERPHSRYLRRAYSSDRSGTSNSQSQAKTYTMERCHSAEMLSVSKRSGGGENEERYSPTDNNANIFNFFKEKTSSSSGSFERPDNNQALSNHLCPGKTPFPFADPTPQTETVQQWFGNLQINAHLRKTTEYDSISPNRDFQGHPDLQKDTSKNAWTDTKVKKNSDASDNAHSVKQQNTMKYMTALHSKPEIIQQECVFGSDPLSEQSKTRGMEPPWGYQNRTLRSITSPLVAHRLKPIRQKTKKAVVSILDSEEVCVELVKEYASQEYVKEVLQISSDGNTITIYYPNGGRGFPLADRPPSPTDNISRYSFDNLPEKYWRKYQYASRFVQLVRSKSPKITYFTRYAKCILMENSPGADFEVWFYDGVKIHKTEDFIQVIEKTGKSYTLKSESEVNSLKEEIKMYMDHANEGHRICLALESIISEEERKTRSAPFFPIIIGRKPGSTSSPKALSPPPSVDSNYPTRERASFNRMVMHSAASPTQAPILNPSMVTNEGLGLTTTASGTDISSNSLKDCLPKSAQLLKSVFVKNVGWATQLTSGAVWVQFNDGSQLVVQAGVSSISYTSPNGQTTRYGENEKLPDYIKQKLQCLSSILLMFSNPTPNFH

[37] = biological target: PDGFRB (human) (UniProt P09619)
Sequence of PDGFRB (human) (P09619 whole entry, looked up): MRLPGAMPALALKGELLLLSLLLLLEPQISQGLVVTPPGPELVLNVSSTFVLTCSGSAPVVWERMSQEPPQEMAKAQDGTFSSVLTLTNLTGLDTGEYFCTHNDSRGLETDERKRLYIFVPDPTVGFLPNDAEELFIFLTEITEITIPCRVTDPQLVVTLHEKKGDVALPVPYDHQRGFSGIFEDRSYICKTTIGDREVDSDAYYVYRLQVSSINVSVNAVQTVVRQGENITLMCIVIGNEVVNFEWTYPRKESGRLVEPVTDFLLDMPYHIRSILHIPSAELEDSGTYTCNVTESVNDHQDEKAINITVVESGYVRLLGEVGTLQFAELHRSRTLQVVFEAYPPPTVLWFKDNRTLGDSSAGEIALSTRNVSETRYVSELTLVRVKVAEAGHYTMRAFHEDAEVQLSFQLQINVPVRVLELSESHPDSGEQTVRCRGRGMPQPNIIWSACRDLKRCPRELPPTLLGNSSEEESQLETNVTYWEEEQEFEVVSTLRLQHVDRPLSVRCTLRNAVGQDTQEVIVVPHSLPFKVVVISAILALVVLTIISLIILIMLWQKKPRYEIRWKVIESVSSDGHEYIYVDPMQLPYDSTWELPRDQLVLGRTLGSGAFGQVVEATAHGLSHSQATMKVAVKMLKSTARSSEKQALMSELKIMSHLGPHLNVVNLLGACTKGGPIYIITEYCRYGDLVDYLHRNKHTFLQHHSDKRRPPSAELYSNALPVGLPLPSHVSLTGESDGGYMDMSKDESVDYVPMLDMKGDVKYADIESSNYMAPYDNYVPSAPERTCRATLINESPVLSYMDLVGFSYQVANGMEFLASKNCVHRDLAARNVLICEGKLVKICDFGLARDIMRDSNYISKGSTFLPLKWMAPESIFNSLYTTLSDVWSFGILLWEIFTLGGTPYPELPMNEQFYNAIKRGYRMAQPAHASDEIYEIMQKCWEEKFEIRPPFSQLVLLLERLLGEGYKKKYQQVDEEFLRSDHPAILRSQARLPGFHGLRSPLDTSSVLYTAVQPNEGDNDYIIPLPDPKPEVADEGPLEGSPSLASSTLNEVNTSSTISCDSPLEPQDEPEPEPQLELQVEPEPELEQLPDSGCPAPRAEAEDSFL

[38] = biological target: CSK (human) (UniProt P41240)
[39] = biological target: FGFR3 (human) (UniProt P22607)
[40] = biological target: PRKCI (human) (UniProt P41743)
[41] = biological target: SGK110 (human) (UniProt P0C264)
Sequence of SGK110 (human) (P0C264 whole entry, looked up): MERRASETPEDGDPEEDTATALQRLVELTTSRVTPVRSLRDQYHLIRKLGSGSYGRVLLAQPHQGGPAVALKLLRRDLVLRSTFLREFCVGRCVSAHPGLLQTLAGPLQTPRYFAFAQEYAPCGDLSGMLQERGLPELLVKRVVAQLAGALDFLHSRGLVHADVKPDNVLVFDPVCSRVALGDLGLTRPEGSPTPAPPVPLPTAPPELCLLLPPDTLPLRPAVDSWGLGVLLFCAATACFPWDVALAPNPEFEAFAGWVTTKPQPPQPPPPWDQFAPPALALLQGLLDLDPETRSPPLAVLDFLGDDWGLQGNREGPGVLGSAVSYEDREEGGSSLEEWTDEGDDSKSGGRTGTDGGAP

N#Cc1cc(-c2ccnc(Nc3ccc(-n4cnc(-c5cccnc5)n4)cc3)n2)cc(N2CCOCC2)c1
kinase still bound, per cent of control [1]: 51% | kinase still bound, per cent of control [2]: 56% | kinase still bound, per cent of control [3]: 100% | kinase still bound, per cent of control [4]: 63% | kinase still bound, per cent of control [5]: 88% | kinase still bound, per cent of control [6]: 75% | kinase still bound, per cent of control [7]: 78% | kinase still bound, per cent of control [8]: 100% | kinase still bound, per cent of control [9]: 100% | kinase still bound, per cent of control [10]: 91% | kinase still bound, per cent of control [11]: 67% | kinase still bound, per cent of control [12]: 62% | kinase still bound, per cent of control [13]: 79% | kinase still bound, per cent of control [14]: 34% | kinase still bound, per cent of control [15]: 80% | kinase still bound, per cent of control [16]: 42% | kinase still bound, per cent of control [17]: 100% | kinase still bound, per cent of control [18]: 65% | kinase still bound, per cent of control [19]: 100% | kinase still bound, per cent of control [20]: 56% | kinase still bound, per cent of control [21]: 2.1% | kinase still bound, per cent of control [22]: 100% | kinase still bound, per cent of control [23]: 90% | kinase still bound, per cent of control [24]: 50% | kinase still bound, per cent of control [25]: 48% | kinase still bound, per cent of control [26]: 72% | kinase still bound, per cent of control [27]: 100% | kinase still bound, per cent of control [28]: 34% | kinase still bound, per cent of control [29]: 43% | kinase still bound, per cent of control [30]: 0.25% | kinase still bound, per cent of control [31]: 93% | kinase still bound, per cent of control [32]: 38% | kinase still bound, per cent of control [33]: 100% | kinase still bound, per cent of control [34]: 18% | kinase still bound, per cent of control [35]: 70% | kinase still bound, per cent of control [36]: 22% | kinase still bound, per cent of control [37]: 8.2% | kinase still bound, per cent of control [38]: 66% | kinase still bound, per cent of control [39]: 74% | kinase still bound, per cent of control [40]: 88% | kinase still bound, per cent of control [41]: 78%

CNC(=O)Nc1ccc(-c2nc(N3CC4CCC(C3)O4)c3cnn(C4CCC5(CC4)OCCO5)c3n2)cc1
kinase still bound, per cent of control [1]: 93% | kinase still bound, per cent of control [2]: 81% | kinase still bound, per cent of control [3]: 88% | kinase still bound, per cent of control [4]: 84% | kinase still bound, per cent of control [5]: 82% | kinase still bound, per cent of control [6]: 76% | kinase still bound, per cent of control [7]: 100% | kinase still bound, per cent of control [8]: 100% | kinase still bound, per cent of control [9]: 84% | kinase still bound, per cent of control [10]: 100% | kinase still bound, per cent of control [11]: 84% | kinase still bound, per cent of control [12]: 95% | kinase still bound, per cent of control [13]: 100% | kinase still bound, per cent of control [14]: 84% | kinase still bound, per cent of control [15]: 100% | kinase still bound, per cent of control [16]: 81% | kinase still bound, per cent of control [17]: 74% | kinase still bound, per cent of control [18]: 100% | kinase still bound, per cent of control [19]: 87% | kinase still bound, per cent of control [20]: 100% | kinase still bound, per cent of control [21]: 100% | kinase still bound, per cent of control [22]: 97% | kinase still bound, per cent of control [23]: 74% | kinase still bound, per cent of control [24]: 100% | kinase still bound, per cent of control [25]: 86% | kinase still bound, per cent of control [26]: 83% | kinase still bound, per cent of control [27]: 100% | kinase still bound, per cent of control [28]: 90% | kinase still bound, per cent of control [29]: 92% | kinase still bound, per cent of control [30]: 100% | kinase still bound, per cent of control [31]: 84% | kinase still bound, per cent of control [32]: 79% | kinase still bound, per cent of control [33]: 100% | kinase still bound, per cent of control [34]: 100% | kinase still bound, per cent of control [35]: 100% | kinase still bound, per cent of control [36]: 75% | kinase still bound, per cent of control [37]: 89% | kinase still bound, per cent of control [38]: 100% | kinase still bound, per cent of control [39]: 83% | kinase still bound, per cent of control [40]: 67% | kinase still bound, per cent of control [41]: 96%

CC1=C(C(=O)Nc2cc3cn[nH]c3cc2F)C(c2ccc(C(F)(F)F)cc2)CC(=O)N1 (configuration not stated)
kinase still bound, per cent of control [1]: 98% | kinase still bound, per cent of control [2]: 84% | kinase still bound, per cent of control [3]: 74% | kinase still bound, per cent of control [4]: 83% | kinase still bound, per cent of control [5]: 36% | kinase still bound, per cent of control [6]: 88% | kinase still bound, per cent of control [7]: 92% | kinase still bound, per cent of control [8]: 100% | kinase still bound, per cent of control [9]: 24% | kinase still bound, per cent of control [10]: 95% | kinase still bound, per cent of control [11]: 86% | kinase still bound, per cent of control [12]: 100% | kinase still bound, per cent of control [13]: 78% | kinase still bound, per cent of control [14]: 78% | kinase still bound, per cent of control [15]: 79% | kinase still bound, per cent of control [16]: 77% | kinase still bound, per cent of control [17]: 100% | kinase still bound, per cent of control [18]: 81% | kinase still bound, per cent of control [20]: 100% | kinase still bound, per cent of control [21]: 96% | kinase still bound, per cent of control [22]: 63% | kinase still bound, per cent of control [23]: 84% | kinase still bound, per cent of control [24]: 73% | kinase still bound, per cent of control [25]: 82% | kinase still bound, per cent of control [26]: 97% | kinase still bound, per cent of control [27]: 76% | kinase still bound, per cent of control [28]: 100% | kinase still bound, per cent of control [29]: 100% | kinase still bound, per cent of control [30]: 94% | kinase still bound, per cent of control [31]: 19% | kinase still bound, per cent of control [32]: 86% | kinase still bound, per cent of control [33]: 100% | kinase still bound, per cent of control [34]: 91% | kinase still bound, per cent of control [35]: 88% | kinase still bound, per cent of control [36]: 86% | kinase still bound, per cent of control [37]: 70% | kinase still bound, per cent of control [38]: 100% | kinase still bound, per cent of control [39]: 81% | kinase still bound, per cent of control [40]: 72% | kinase still bound, per cent of control [41]: 59%
